Target: T1, PelD^Bc (PelD^Bc150-407; also PelD^Bc170-403)
T1 construct: gene BCE_5583
Settings: 20 mM HEPES pH 8.0, 150 mM NaCl, 5% glycerol, 1 mM DTT; 25 μM protein, 450 μM c-di-GMP in syringe; single-site model; proposed I-site (RxxD)

Compound: Nc1nc2c(ncn2[C@@H]2O[C@@H]3COP(=O)(O)O[C@H]4[C@@H](O)[C@H](n5cnc6c(=O)[nH]c(N)nc65)O[C@@H]4COP(=O)(O)O[C@H]3[C@H]2O)c(=O)[nH]1 [c-di-GMP]
- Kd: 103 ± 14 nM
